# Reference: a melting point compilation (Tetko et al.; mined from patent text by program, amines drawn as free bases though some values may be those of a salt)
row,melting point,Structure (SMILES)
1,39 to 40 °C,CCCCS(=O)c1ncn(C(=O)N(CCC)CCC)n1 (stereo not given)
2,149 to 152 °C,CC(=O)OC1=C([C@H]2CC[C@H](c3ccc(Cl)cc3)CC2)C(=O)c2ccccc2C1=O
3,117 to 119 °C,CCCc1nc(C=O)c(C(=O)OCC)n1Cc1ccc(-c2ccccc2C(=O)OC(C)(C)C)cc1
4,135 to 136 °C,Cc1ccc(S(=O)(=O)N2CCCC(CS(=O)(=O)c3ccccc3)C2)cc1 (stereo not given)
5,141 °C,C=CC(C)=CC(=CC)NCc1ccc2nc(NC3CCN(C)CC3)n(Cc3nc(C)ccc3O)c2c1
6,67 to 68 °C,CSCc1ccc(-c2cccnc2)o1
7,> 250 °C,COc1cc2c(Nc3ccc(Cl)cc3F)ncnc2cc1OCCCn1ccc(=O)cc1
8,69 to 71 °C,COC(=O)C1CCC2(C3(C)OCCO3)CC1C(=O)O2 (stereo not given)
9,162 to 163 °C,Cc1ccc(C(=O)NC(NC(=O)Nc2cccnc2)C(Cl)(Cl)Cl)cc1 (stereo not given)
10,98 to 105 °C,COc1ccccc1OCC(O)CNCCOc1ccc(C(N)=O)cn1 (stereo not given)
11,188 to 189 °C,CCOC(=O)c1ncc2c(c1CBr)c1ccccc1n2C(C)=O
12,168 to 171 °C,O=S(=O)(NCCCCl)c1ccc(Nc2ncnc3cc(Cl)ccc23)cc1
13,55 to 64 °C,O=C(O)C1CCC(OCc2ccccc2)CC1 (stereo not given)
14,177 to 187 °C,Oc1cc2ccc(Cc3ccccc3)cc2cc1O
15,126 to 131 °C,COc1ccc(CN2C(=O)c3c(-c4ccccc4Cl)cc4c(c3C2=O)c2cc(OC)ccc2n4CCC(O)CO)c(OC)c1 (stereo not given)
16,105 to 106 °C,CC(C)c1ccnc(NC(=S)NCCC2=CCCCC2)c1
17,241 to 243 °C,O=C(O)c1cnc2cc(C3CCCCC3)ccc2c1O
18,159 to 162 °C,CNC(=O)c1c(N)cc(Cl)cc1Cl
19,137 to 138 °C,COc1ccc2c(C(=O)NCCCCC(=O)O)cc3cc4c(cc3c2c1)OCO4
20,76 °C,COc1ccc(CC(N)(C#N)CF)cc1OC (stereo not given)
21,169 to 170 °C,CCN1c2ncc(COc3ccncc3)cc2C(=O)N(C)c2ccc(Cl)nc21
22,250 to 251 °C,Cc1nnc(-c2ccc3occ(-c4ccc(S(C)(=O)=O)cc4)c3n2)o1
23,187 to 188 °C,CCC(CC)NC(=O)Nc1cc(-c2c(-c3ccc(F)c(C)c3)nc3cccnn23)ccn1
24,58 to 60 °C,CSCC(C)OC(=O)C(=C1NCCCS1)[N+](=O)[O-] (stereo not given)

row,melting point,Structure (SMILES)
1,88 to 95 °C,COc1cc(C2CCN(CC(N)=O)CC2)ccc1Nc1ncc2ccc(-c3ccccc3OC)n2n1
2,94 to 96 °C,OCCc1ccc(Nc2ncc3c(n2)-c2ccccc2C(c2ccc(Cl)c(Cl)c2)C3)cc1 (stereo not given)
3,213 to 214 °C,Cc1[nH]c2ccccc2c1C(=O)C(=O)N1CCC(Oc2ccc(F)cc2)CC1
4,231 to 238 °C,CC(=O)Nc1ccc(C=[N+]([O-])Cc2ccccc2)cc1
5,96 to 96.5 °C,CCC(=C1SCN(C)CS1)c1ccc(Oc2ccccc2)cc1
6,155 to 159 °C,c1csc(-c2ccc3nncn3n2)c1
7,265 to 267 °C,N#Cc1ccc2c(c1)c1cc(C#N)ccc1n2Cc1ccccc1
8,230 to 233 °C,Cc1ccc(C(=O)NC(NC(=O)Nc2ccccc2)C(Cl)(Cl)Cl)cc1 (stereo not given)
9,99 °C,COC(=O)c1ccc(Cc2cc3cc(Cl)ccc3n2S(=O)(=O)c2ccc(C(C)C)cc2)cc1
10,240 to 242 °C,COC(=O)C1CN(C(=O)c2ccccc2-n2cccn2)c2ccc(C)cc2CN1S(=O)(=O)c1ccc(OC)cc1 (stereo not given)
11,245 to 247 °C,NCC(C(=O)O)c1c[nH]c2cc(Cl)ccc12 (stereo not given)
12,182 to 183 °C,Cc1c(-c2ccccc2Cl)n(-c2ccccc2)c(-c2ccccc2F)cc1=O
13,> 200 °C,FC(F)(F)c1cccc(-c2snnc2S)c1
14,227 to 229 °C,COc1cc(OCCN2CCCC2)cc2nc(-c3cc(C)nc(C)c3)[nH]c(=O)c12
15,79 to 80.5 °C,CNC(=C[N+](=O)[O-])NCCCCOc1cccc(CCCN(C)C)c1
16,274 to 275 °C,N#Cc1cnc2c(c1)[nH]c(=O)n2[C@H]1CC[C@H](O)CC1
17,145 to 148 °C,Cc1nccn1CCCNC(=O)c1cccc2oc(-c3ccccc3)nc12
18,134 to 136 °C,Nc1ccc(C#CCCN2CCC(O)(c3ccc(Cl)cc3)CC2)cc1
19,118 to 120 °C,Cc1ccc(C(=O)N2CC3CC2CN3c2nc(-c3ccncc3)cc(=O)n2C)cc1 (stereo not given)
20,87 to 88 °C,CC(=O)CSc1nc2ccccc2n1C
21,183 to 184 °C,Cc1cc(C(=O)NCC(N)=O)cc(-c2cccc3cc(Cc4cccc(C(F)(F)F)c4)sc23)n1
22,307 to 309 °C,O=c1[nH]cnc2ccc(C=Cc3ccncc3)cc12
23,230 to 231 °C,CCOC(=O)c1cc2c3n(ccc-2n1)CC(C(F)(F)F)=N3
24,91 to 96 °C,NCC(=O)SCC(Cc1ccccc1)C(=O)Nc1cccc(C(=O)O)c1 (stereo not given)

row,melting point,Structure (SMILES)
1,207 to 209 °C,Cn1cc2c3c(c(Cl)cc2n1)CCC3=O
2,92 to 100 °C,COc1cc(C2CCN(C(=O)C(C)(C)N)CC2)ccc1Nc1ncc2ccc(-c3ccccc3N(C)S(C)(=O)=O)n2n1
3,150 °C,Cc1ccc2c(c1)c(=O)oc(=O)n2Cc1ccccc1
4,125 °C,COc1ccc(CN(C)CCc2ccc(NC(=O)c3cccc4c(=O)c5cccc(F)c5[nH]c34)c(C)c2)cc1OC
5,152 to 154 °C,COc1cc(OC)cc(-c2ncoc2-c2ccc(OC)c(N)c2O)c1
6,142 to 143 °C,Cc1c(CNCC(C)C)n(C)c2ccc(NC(=O)c3ccc(OCC4CC4)cc3)cc12
7,114 °C,CCOC(=O)c1cc(-c2ccc(Cl)cc2Cl)c(-c2ccc(Cl)cc2)nc1C
8,128 to 130 °C,CCCCOc1cc2c(Cl)c(C#N)cnc2cc1OCCOC
9,181 °C,CCOC(=O)CN(C(=O)CNC(=O)Nc1cccc(C)c1)c1ccccc1
10,175 to 176 °C,CCN1C(=O)C(C(=O)Nc2ccc(Cl)cc2)c2cc3c(cc21)CCO3 (stereo not given)
11,131 to 137 °C,CN1C(=O)N(c2ccccc2F)C(=O)C1=CC1CCCCC1
12,135 to 138 °C,COC(=O)c1ccc(S(C)(=O)=O)c(-c2nccs2)c1Cl
13,117 to 125 °C,CCOC(=O)c1cnc2n(c1=O)CCc1ccccc1-2
14,154 to 155 °C,COc1ccc(CNc2cc(C(O)CNC(C)(C)CCn3cnc4ccccc43)ccc2O)cc1 (stereo not given)
15,215 to 217 °C,CNn1cc(C(=O)O)c(=O)c2ccc(C)nc21
16,146 to 148 °C,COc1ccc(C=Cc2ccc(C#N)cc2)cc1
17,172 to 175 °C,COc1cc2ncnc(N3CCC(C(C)CN4CCC(C)NS4(=O)=O)CC3)c2cc1OC (stereo not given)
18,138 °C,Nc1cc(C(=O)c2ccccc2)ccc1N1CCOCC1
19,110 °C,COCCCN1CC[C@@H](CNC(=O)c2cc(Cl)cc3c2OCCO3)[C@H](O)C1
20,132 to 135 °C,CN(C)CCCNC(=O)c1ccc(-c2ccc3nnn(Cc4ccc5ncccc5c4)c3n2)cc1
21,186 to 187 °C,CC(C)=CC(=O)N1CCN(C(Cc2cccc(O)c2)c2ccccc2)CC1 (stereo not given)
22,84.5 °C,CCOC(=O)COc1c(C)c(C(=O)c2ccc(C(=O)OC)cc2)n2ccccc12
23,152 to 153 °C,CCOC(=O)c1cccc2c1N=C(c1ccccc1Cl)CC2=O
24,275 to 276 °C,CCCN(CCC)C1Cc2cc3c(cc2C1)C(=O)N(c1ccc(C(N)=O)cc1)C3=O

row,melting point,Structure (SMILES)
1,155 °C,Nc1cccc2cncc(Br)c12
2,218 °C,Nc1cc(=O)n(Cc2ccc3c(c2)OCO3)[nH]1
3,117 to 118 °C,c1cncc(-c2c[nH]cn2)c1
4,220 to 223 °C,CCS[C@@H]1c2ccn3c(C)c(C)nc3c2N[C@H](c2ccccc2)[C@H]1O
5,74 to 76 °C,CCCN(CCC)CCCCNC(=O)c1cnc2cc(I)ccc2n1
6,165 to 166 °C,O=C(CC1c2ccccc2C(=O)N1c1ccc(Cl)cn1)N1CCCCC1 (stereo not given)
7,201 to 210 °C,COc1ccc(S(=O)(=O)Nc2cc(F)cc3c2Nc2ccc(O)cc2CO3)cc1
8,134 to 135 °C,Cc1cccc2c1nc(-c1c(F)cccc1F)n2S(=O)(=O)c1ccccc1
9,103 to 104 °C,COC(=O)c1ccc(N2CCC(N(C)Cc3ccccc3)CC2)cc1
10,200 to 201 °C,CCS(=O)(=O)c1ccc(-c2coc3ccc(-c4nnc(C)o4)cc23)cc1F
11,253 to 254 °C,O=C1Nc2cc(C(F)(F)F)ccc2S(=O)(=O)c2ccccc21
12,125 to 128 °C,CNC(=O)c1c(-c2ccccc2)noc1CC(=O)c1ccccc1
13,172 to 175 °C,Cc1ccc(COn2c(C)c(C(C)C(=O)O)c3cc4c(cc32)OCO4)cc1 (stereo not given)
14,68 to 70 °C,Clc1ccc(Sc2ncccn2)cc1
15,215 to 217 °C,CC(c1oc2ccccc2c(=O)c1-c1cccc(F)c1)n1nc(-c2ccc(C=O)o2)c2c(N)ncnc21 (stereo not given)
16,106 °C,O=C1CCCCN1Cc1ccc[nH]1
17,181 °C,CCCCCCCc1ccc(C(=O)c2ccc(C(=O)O)cc2)cc1
18,171 to 173 °C,O=[N+]([O-])c1cc(N=c2sc(=S)n3n2CCCC3)c(F)cc1Cl
19,143 to 145 °C,O=C(CCCN1CCCC1=O)Nc1ncccc1C(=O)c1cccs1
20,210 to 212 °C,COc1cc2c(cc1C(F)(F)F)N(C(=O)Nc1ccc(F)c(-c3cccnc3)c1)CC2
21,89 to 92 °C,CC(=O)OC1CSC(Oc2cccnc2C(=O)N2CCCCC2)C(OC(C)=O)C1OC(C)=O (stereo not given)
22,118 to 119 °C,CC(C)(C)OC(=O)Nc1cc(OCc2ccccc2)c2ncccc2c1I
23,183 to 184 °C,Oc1cccc2c1C[C@@H](O)[C@H](O)C2 (relative stereo)
24,112 to 113 °C,CC(=O)c1ccc([N+](=O)[O-])c(Nc2cccc(-c3cccnc3)c2)c1

row,Structure (SMILES),melting point
1,Cc1ccc(NC(=O)OC2CN3CCC2CC3)cc1 (stereo not given),186 to 188 °C
2,O=C1c2c(Cl)cccc2-n2cnc(-c3nc(CN4Cc5ccccc5C4)no3)c2[C@@H]2CCN12,170 to 175 °C
3,CC(C)CC(=O)N[C@H]1N=C(c2ccccc2)c2ccccc2N(C)C1=O,83 to 102 °C
4,CCN(C(=O)C1CC1)c1cccc(-c2ccnc3c(C(=O)c4ccco4)cnn23)c1,182 to 184 °C
